From PubChem BioAssay (NCI)
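Five compound concentrations were applied to cells in 96-well plates for 48 hours; endpoints were derived by simple linear interpolation of the resulting dose-response curve. TGI is the concentration that stops growth completely.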

Tests used:
Test in all cases: inhibition of tumour cell growth, NCI panel, 48 h
LOX IMVI melanoma = system: LOX IMVI melanoma
OVCAR-4 ovarian = system: OVCAR-4 ovarian
SK-MEL-5 melanoma = system: SK-MEL-5 melanoma
DU-145 prostate = system: DU-145 prostate
ACHN renal = system: ACHN renal
M14 melanoma = system: M14 melanoma
UACC-257 melanoma = system: UACC-257 melanoma
HCT-116 colon = system: HCT-116 colon
IGROV1 ovarian = system: IGROV1 ovarian
HCT-15 colon = system: HCT-15 colon
A498 renal = system: A498 renal
MDA-N = system: MDA-N
SK-MEL-28 melanoma = system: SK-MEL-28 melanoma
SN12C renal = system: SN12C renal
SNB-19 CNS = system: SNB-19 CNS
PC-3 prostate = system: PC-3 prostate
RXF 393 renal = system: RXF 393 renal
CCRF-CEM leukemia = system: CCRF-CEM leukemia
SW-620 colon = system: SW-620 colon
RPMI-8226 leukemia = system: RPMI-8226 leukemia
KM12 colon = system: KM12 colon
TK-10 renal = system: TK-10 renal
HS 578T breast = system: HS 578T breast
OVCAR-5 ovarian = system: OVCAR-5 ovarian
OVCAR-3 ovarian = system: OVCAR-3 ovarian
786-0 renal = system: 786-0 renal
HL-60(TB) leukemia = system: HL-60(TB) leukemia
MOLT-4 leukemia = system: MOLT-4 leukemia
NCI-H23 lung = system: NCI-H23 lung
HT29 colon = system: HT29 colon
SF-295 CNS = system: SF-295 CNS
UACC-62 melanoma = system: UACC-62 melanoma
BT-549 breast = system: BT-549 breast
HOP-62 NSCLC = system: HOP-62 NSCLC
NCI/ADR-RES ovarian = system: NCI/ADR-RES ovarian
A549 NSCLC = system: A549 NSCLC
OVCAR-8 ovarian = system: OVCAR-8 ovarian
SF-268 CNS = system: SF-268 CNS
NCI-H522 lung = system: NCI-H522 lung
MCF7 breast = system: MCF7 breast
MALME-3M melanoma = system: MALME-3M melanoma
SK-MEL-2 melanoma = system: SK-MEL-2 melanoma
NCI-H460 lung = system: NCI-H460 lung
K-562 leukemia = system: K-562 leukemia
COLO 205 colon = system: COLO 205 colon
UO-31 renal = system: UO-31 renal
T-47D breast = system: T-47D breast
MDA-MB-231 breast = system: MDA-MB-231 breast
CAKI-1 renal = system: CAKI-1 renal
NCI-H226 lung = system: NCI-H226 lung
U251 CNS = system: U251 CNS
EKVX NSCLC = system: EKVX NSCLC
MDA-MB-435 = system: MDA-MB-435
SK-OV-3 ovarian = system: SK-OV-3 ovarian
HOP-92 NSCLC = system: HOP-92 NSCLC
SF-539 CNS = system: SF-539 CNS
SNB-75 CNS = system: SNB-75 CNS
HCC-2998 colon = system: HCC-2998 colon

Measured: TGI

CCc1n[nH]c(=O)n1/N=C/c1ccc(/C=N/n2c(CC)n[nH]c2=O)cc1
not listed: SK-OV-3 ovarian | HOP-92 NSCLC | SF-539 CNS | SNB-75 CNS | HCC-2998 colon
> 100 µM: all other assays above

Nc1cccc2nnccc12
not listed: LOX IMVI melanoma | OVCAR-4 ovarian | A498 renal | SK-MEL-28 melanoma | OVCAR-3 ovarian | MOLT-4 leukemia | HOP-62 NSCLC | K-562 leukemia | HCC-2998 colon
> 100 µM: all other assays above

CCO/C(O)=C(/C(=N)N1CCOCC1)C(=O)Nc1ccc(Cl)cc1
not listed: SK-MEL-5 melanoma | UO-31 renal | HOP-92 NSCLC
> 100 µM: all other assays above
